The record followed here is US20120295923A1, “Aminocyclohexanes and Aminotetrahydropyrans and Related Compounds As Gamma-Secretase Modulators” (PFIZER INC., priority 2010, published 2012).

Structures can show the parent of a compound that is named as a salt.

The subject of the first assay is γ-secretase; production of amyloid beta protein Aβ(1-42). Kind of assay: Cell-Based γ-Secretase Assay with ELISA Readout. The settings on record: human WT-APP overexpressing CHO cells; footnote 8: single determination; read-out: Aβ 42B IC50 (nM) (Geometric Mean of 2-8 Determinations). The protocol: The ability of compounds to modulate production of amyloid beta protein A6(1-42) was determined using human WT-APP overexpressing CHO cells. Cells were plated at 22,000 cells/100 μL well in 96 well tissue culture treated, clear plates (Falcon) in DMEM/F12 based medium and incubated for 24 hours at 37° C. Compounds for testing were diluted in 100% DMSO to achieve an eleven points, half log, dose response for IC50 determinations. Compounds were added in fresh medium to achieve 1% final DMSO. Appropriate vehicle and inhibitor controls were added to obtain maximum and minimum inhibition values for the assay before the plates were incubated for about 24 hours at 37° C.
Coating of ELISA assay plates was initiated by addition of 50 μL/well of an in-house Aβ(1-42) specific antibody at (4 μg/mL) in 0.1 M NaHCO3 (pH 9.0) into black 384-well Maxisorp® plates (Nunc) and incubated overnight at 4° C. The capture antibody was then aspirated from the ELISA assay plates and 100 μL/well of Blocking Buffer (Dulbecco's PBS, 1.5% BSA (Sigma A7030)) added. Ambient temperature incubation was allowed to proceed for a minimum of two hours before washing 2×100 μL with Wash Buffer (Dulbecco's PBS, 0.05% Tween 20). Assay Buffer (Dulbecco's PBS, 1.0% BSA (Sigma A7030), 0.05% Tween 20) 20 μL/well was then added.
After incubation overnight at 37° C., 5% CO2, 40 μL (in duplicate) of experimental conditioned media were transferred into wells of the blocked ELISA plates containing the capture antibody, followed by overnight incubation at 4° C.
After overnight incubation of the ELISA assay plates at 4° C., unbound Aβ peptides were removed thorough (4×100 μL) washes with Wash Buffer. Europium (Eu) labeled (custom labeled, Perkin Elmer) Aβ(1-16) 6e10 Monoclonal Antibody (Covance #SIG-39320 was added, (50 μL/well Eu-6e10 @ 1:5000, 20 uM EDTA) in Assay Buffer. Incubation at ambient temperature for a minimum of 2 hours was followed by (4×100 μL) washes with Wash Buffer, before 50 μL/well of Delfia Enhancement Solution (PerkinElmer) was added. Following a one hour ambient temperature incubation, the plates were read on an EnVision plate reader (PerkinElmer) using standard DELFIA TRF settings. Data analysis including inhibitory IC50 determination was performed using nonlinear regression fit analysis (in-house software) and the appropriate plate mean values for the maximum and minimum inhibition controls.
Take `CC(C)CCN(CC1CCCCO1)[C@@H]1CC[C@@H](CC(=O)O)C[C@H]1c1ccc(C(F)(F)F)cc1` (stereo partly drawn) [Example 17, {[1R,3S,4R)-4-[(3-methylbutyl) (tetrahydro-2H-pyran-2-ylmethyl)amino]-3-[4-(trifluoromethyl)phenyl]cyclohexyl} acetic acid]: the IC50 is 1510 nM. On the same count and under the same terms, next, `O=C(O)C[C@H]1CC[C@@H](N(CC2CCCC2)CC2CCCC2)[C@H](c2ccc(C(F)(F)F)cc2)O1` [Example 22, {(2R,5R,6S)-5-[bis(cyclopentyl-methyl)amino]-6-[4-(trifluoromethyl)phenyl]tetrahydro-2H-pyran-2-yl} acetic acid]: 6390 nM; `CC(C)CCN(CC1CCCCC1)[C@@H]1CC[C@@H](CC(=O)O)C[C@H]1c1ccc(C(F)(F)F)cc1` [Example 13, {(1R,3S,4R)-4-[(cyclohexylmethyl) (3-methylbutyl)amino]-3-[4-(trifluoromethyl)phenyl]cyclohexyl} acetic acid]: 236 nM; `O=C(O)C[C@@H]1CC[C@@H](N(CC2CCCCC2)CC2CCCCC2)[C@H](c2ccc(C(F)(F)F)cc2)C1` [Example 15, {(1R,3S,4R)-4-[bis(cyclohexylmethyl)amino]-3-[4-(trifluoro-methyl)phenyl]cyclohexyl}acetic acid]: 107 nM. Same read-out and setting: next, `CC1CN([C@@H]2CC[C@@H](CC(=O)O)C[C@H]2c2ccc(C(F)(F)F)cc2)CC2(CCCCC2)C1` (stereo partly drawn) [Example 23, {(1R,3S,4R)-4-(4-methyl-2-azaspiro[5.5]undec-2-yl)-3-[4-(trifluoromethyl)phenyl]cyclohexyl} acetic acid]: 868 nM. Regarding `O=C(O)C[C@@H]1CC[C@@H](N(CC2CCCC2)CC2CCCC2)[C@H](c2cccc(C(F)(F)F)c2)O1` [Example 20, {(2S,5R,6S)-5-[bis(cyclopentyl-methyl)amino]-6-[3-(trifluoromethyl)phenyl]tetrahydro-2H-pyran-2-yl} acetic acid], the IC50 came out at 959 nM. With `O=C(O)C[C@@H]1CC[C@@H](N2CC3(CCCC3)CC3(CCCC3)C2)[C@H](c2ccc(C(F)(F)F)cc2)C1` [Example 29, {(1R,3S,4R)-4-(13-azadispiro [4.1.4.3]tetradec-13-yl)-3-[4-(trifluoromethyl)phenyl]cyclohexyl} acetic acid], the IC50 stood at 193 nM. The same measure, in the same setting: next, `CC1(CN(CC2CCCC2)[C@@H]2CC[C@@H](CC(=O)O)C[C@H]2c2ccc(C(F)(F)F)cc2)CCCC1` [Example 21, {(1R,3S,4R)-4-{(cyclopentyl-methyl)[(1-methylcyclo-pentyl)methyl]amino}-3-[4-(trifluoromethyl)phenyl]cyclohexyl} acetic acid]: 435 nM; `O=C(O)C[C@@H]1CC[C@@H](N(Cc2cccc(F)c2)CC2CCCC2)[C@H](c2ccc(C(F)(F)F)cc2)C1` [Example 28, {(1R,3S,4R)-4-[(cyclopentyl-methyl)(3-fluorobenzyl)amino]-3-[4-(trifluoromethyl)phenyl]cyclohexyl} acetic acid, hydro-chloride salt]: 230 nM.

The same assay, now with this note: human WT-APP overexpressing CHO cells; geometric mean of 2-4 determinations unless otherwise indicated (footnote 10: 6-8; footnote 14: single determination); read-out: Aβ 42B IC50.
For `CCc1csc(CN(CC2(F)CCCCC2)[C@@H]2CC[C@@H](CC(=O)O)C[C@H]2c2ccc(C(F)(F)F)cc2)n1` [Example 64, {(1R,3S,4R)-4-{[(4-ethyl-1,3-thiazol-2-yl)methyl][(1-fluorocyclohexyl)methyl]amino}-3-[4-(trifluoromethyl)phenyl]cyclohexyl}acetic acid, trifluoroacetate salt], the IC50 is 840 nM. Same read-out and setting: the value for `O=C(O)C[C@@H]1CC[C@@H](N(Cc2cncnc2)CC2CCCC2)[C@H](c2ccc(C(F)(F)F)cc2)C1` [Example 38, {(1R,3S,4R)-4-[(cyclopentylmethyl)(pyrimidin-5-ylmethyl)amino]-3-[4-(trifluoromethyl)phenyl]cyclohexyl}acetic acid, trifluoroacetate salt] was 5220 nM; that for `O=C(O)C[C@@H]1CC[C@@H](N(CCC2CCCCC2)CC2CCCC2)[C@H](c2ccc(C(F)(F)F)cc2)C1` [Example 40, {(1R,3S,4R)-4-[(2-cyclohexylethyl)(cyclopentyl-methyl)amino]-3-[4-(trifluoromethyl)phenyl]cyclohexyl}acetic acid, trifluoroacetate salt] was 621 nM; that for `CC(C)CN(Cc1ccc(C(C)(C)C)cc1)[C@@H]1CC[C@@H](CC(=O)O)C[C@H]1c1ccc(C(F)(F)F)cc1` [Example 66, {(1R,3S,4R)-4-[(4-tert-butylbenzyl)(isobutyl)amino]-3-[4-(trifluoromethyl)phenyl]cyclohexyl}acetic acid, trifluoroacetate salt] was 268 nM. Same read-out and setting: next, `O=C(O)C[C@@H]1CC[C@@H](N(Cc2cscn2)CC2CCCC2)[C@H](c2ccc(C(F)(F)F)cc2)C1` [Example 42, {(1R,3S,4R)-4-[(cyclopentylmethyl)(1,3-thiazol-4-ylmethyl)amino]-3-[4-(trifluoromethyl)phenyl]cyclohexyl}acetic acid, trifluoroacetate salt]: 1970 nM; `CCC(CC)CN(CC1CCCC1)[C@@H]1CC[C@@H](CC(=O)O)C[C@H]1c1ccc(C(F)(F)F)cc1` [Example 43, {(1R,3S,4R)-4-[(cyclopentylmethyl)(2-ethylbutyl)amino]-3-[4-(trifluoromethyl)phenyl]cyclohexyl}acetic acid, trifluoroacetate salt]: 162 nM; `CC(C)C[C@H](C)N(CC1CCCC1)[C@@H]1CC[C@@H](CC(=O)O)C[C@H]1c1ccc(C(F)(F)F)cc1` (single isomer, unassigned) [Example 56]: 544 nM. Still for that read-out and setting: next, `CC(CN(CC1CCCC1)[C@@H]1CC[C@@H](CC(=O)O)C[C@H]1c1ccc(Cl)cc1)C(F)(F)F` (stereo partly drawn) [Example 51, {(1R,3S,4R)-3-(4-chlorophenyl)-4-[(cyclopentylmethyl)(3,3,3-trifluoro-2-methylpropyl)amino]cyclohexyl}acetic acid, trifluoroacetate salt]: 382 nM.

As for `CC(C)CN(CC1=CCCCC1)[C@@H]1CC[C@@H](CC(=O)O)C[C@H]1c1ccc(C(F)(F)F)cc1` [Example 60, {(1R,3S,4R)-4-[(cyclohex-1-en-1-ylmethyl)(isobutyl)amino]-3-[4-(trifluoromethyl)phenyl]cyclohexyl}acetic acid, trifluoroacetate salt], the IC50 was determined as 154 nM. Still for that read-out and setting: the value for `O=C(O)C[C@@H]1CC[C@@H](N(CC2CCCCC2)C2CCOCC2)[C@H](c2ccc(C(F)(F)F)cc2)C1` [Example 31, {(1R,3S,4R)-4-[(cyclohexylmethyl)(tetrahydro-2H-pyran-4-yl)amino]-3-[4-(trifluoromethyl)phenyl]cyclohexyl}acetic acid, ammonium salt] was 1300 nM. Regarding `O=C(O)C[C@@H]1CC[C@@H](N(CCC2CCCCO2)CC2CCCC2)[C@H](c2ccc(C(F)(F)F)cc2)C1` (stereo partly drawn) [Example 41, {(1R,3S,4R)-4-{(cyclopentylmethyl)[2-(tetrahydro-2H-pyran-2-yl)ethyl]amino}-3-[4-(trifluoromethyl)phenyl]cyclohexyl}acetic acid, trifluoroacetate salt], the IC50 was found to be 5630 nM. On the same count and under the same terms, next, `CC(C)CCN(Cc1nccs1)[C@@H]1CC[C@@H](CC(=O)O)C[C@H]1c1ccc(C(F)(F)F)cc1` [Example 33, {(1R,3S,4R)-4-[(3-methylbutyl)(1,3-thiazol-2-ylmethyl)amino]-3-[4-(trifluoromethyl)phenyl]cyclohexyl}acetic acid, trifluoroacetate acid]: 3020 nM.

Staying with this assay, now noted: human WT-APP overexpressing CHO cells; geometric mean of 2 determinations unless otherwise indicated (footnote 2: 6-14 determinations); read-out: Aβ 42B IC50.
As for `O=C(O)C[C@@H]1CC[C@@H](N(CC2CCCC2)CC2CCCC2)[C@H](c2ccc(Cl)cc2)C1` [Example 6, [(1R,3S,4R)-4-[bis(cyclopentylmethyl)amino]-3-(4-chlorophenyl)cyclohexyl]acetic acid], the IC50 stood at 719 nM.
